# Like-named read-outs stand apart in the source and are kept apart here.
# How the values were obtained:
# Format in all cases: cell-based, Hepatitis C virus
# [1] = tested on: HCV 1aY93H mutant replicon; experiment: HCV replicon assay, genotype 1a Y93H mutant
# Description: General procedure: The luciferase replicon transient transfection assay measures the ability of a test compound to inhibit the replication of a transiently-transfected HCV luciferase-bearing wild-type or mutant replicon in cured human hepatoma cells (Huh7.5). The inhibition of HCV replication was measured by quantification of luciferase protein expression. This assay has been validated using a panel of genotype 1a and 1b replicons bearing mutations known to be associated with resistance to BMS-790052. Briefly, subconfluent Huh7.5 cells were electroporated with 10 μg of wild-type or mutant luciferase-bearing HCV replicon RNA. The cells were then seeded in 96-well opaque white plates at 3×10^4 cells/well in 150 μL/well and incubated for 4 hrs at 37° C./5% CO2. Ten 1:5 serial dilutions of each test compound were made in media (DMEM containing glucose, L-glutamine and sodium pyruvate, 10% fetal bovine serum, 100 IU/mL penicillin, 100 μg/mL streptomycin, 2 mM GlutaMAX, and 1×MEM non-essential amino acids (Mediatech, Inc. and Invitrogen Corp.)) at concentrations that were 4× higher than the final concentrations to be tested and 50 μL/well was added to the transfected cells. Untreated, mock-transfected cells served as a negative control of luciferase expression. The plates were incubated at 37° C./5% CO2 for 4 days whereupon the media was removed and 50 μL of ONE-glo luciferase substrate (Promega) was added to each well. The plates were agitated on a rotating platform at room temperature for 3 min and read in a Victor^3V microplate reader (Perkin-Elmer) using a 700 nm cut-off filter with a 1 sec read time. EC50 values were calculated from dose response curves from the resulting best-fit equations determined by Microsoft Excel and XLfit 4.1 software.
# [2] = tested on: HCV genotype 1a H77 strain subgenomic luciferase replicon; experiment: HCV replicon assay, genotype 1a
# Description: (§1) The HCV luciferase replicon assay measures the ability of a test compound to inhibit HCV replication in cell culture after 3 days of treatment in a human hepatoma cell line (Huh-7) bearing an HCV replicon containing a luciferase-neomycin phosphotransferase fusion gene. The inhibition of HCV replication was measured by quantification of luciferase protein expression. Briefly, Huh-7 cells containing either the HCV genotype 1a H77 strain or genotype 1b Con1 strain subgenomic luciferase replicon (H1a-luc or Zluc, respectively) were grown in DMEM containing glucose, L-glutamine and sodium pyruvate, 10% fetal bovine serum (FBS), 100 IU/mL penicillin, 100 μg/mL streptomycin, 2 mM GlutaMAX, non-essential amino acids and 0.25 (H1a-luc) or 0.5 (Zluc) mg/mL G418. GlutaMAX was obtained from Invitrogen, Corp.; all other media reagents were obtained from Mediatech, Inc. For dose-response testing, the cells were seeded in 96-well plates at 1×10^4 (H1a-luc) or 7.5×10^3 (Zluc) cells/well in a volume of 50 μL, and incubated at 37° C./5% CO2. Three hours after plating, 50 μL of ten 5-fold serial dilutions of compound were added, and cell cultures were incubated at 37° C./5% CO2 for 72 hours. In all cases, Huh-7 cells lacking the HCV replicon served as negative control. To assess luciferase expression, the media/compound was removed from the plates and ONE-glo Luciferase assay reagent (Promega) was added to each well. The assay plates were shaken for 3 minutes at room temperature and luciferase activity for each well was measured with a 1 sec read time on the Victor^3V multilabel counter using a 700 nm cut-off filter (Perkin Elmer). EC50 values were calculated from dose response curves from the resulting best-fit equations determined by Microsoft Excel and XLfit 4.1 software.
# [3] = tested on: HCV genotype 3a NS5A within the 1b-replicon; experiment: HCV replicon assay, genotype 3a (NS5A intergenotypic stable cell line)
# Description: The nucleotide sequences of the NS5A region of genotype 2a (GenBank Accession # AB047639), genotype 3a (GenBank Accession # D17763), and genotype 4a (GenBank Accession # DQ418788) were synthesized by an outside vendor. The NS5A region of each of these genotypes included the first 11 amino acids of the protease recognition sequence of genotype 1b, as well as the last 10 amino acids of genotype 1b. The NS5A gene cassettes were excised with site specific restriction endonucleases and ligated into a ZS11-luciferase genotype 1b backbone (backbone contains the genotype 1b NS3 protease, NS4a, NS4b, and NS5b coding regions) with similarly cut restriction enzyme sites. Thus, the newly constructed plasmid contains a genotype 2a-, 3a- or 4a-specific NS5A gene within the 1b-replicon.
# These new intergenotypic plasmids were used to establish stable cell lines. RNA was generated from the NS5A intergenotypic plasmids and used in conjunction with a lipofectin reagent to transfect a cured Huh7 cell line. Transfected cells were selected for with G418. After selection has occurred the stable cell lines were propagated, tested for luciferase activity, and RT-PCR with genotype specific primers (either 1a, 2a, 3a, or 4a). Stable cell lines containing the intergenotypic replicon were then fully sequenced and analyzed for proper expression of NS3, NS5A and NS5B proteins.
# Drug titration analysis was performed using the luciferase replicon assay described herein.
# as §1
# [4] = tested on: HCV 2b; experiment: HCV replicon assay, genotype 2b
# [5] = Hepatitis C virus, read-out: 1aY93H IC50 (nM), HCV genotype 1a, Y93H mutant
# [6] = Hepatitis C virus, read-out: 1a IC50 (nM), HCV genotype 1a
# [7] = read-out: 3a IC50, HCV genotype 3a
# [8] = read-out: 1aY93H IC50, HCV genotype 1a, Y93H mutant
# [9] = read-out: 2b IC50, HCV genotype 2b
# [10] = read-out: 1a IC50, HCV genotype 1a
# [11] = Hepatitis C virus, read-out: 3a IC50 (nM), HCV genotype 3a
# [12] = Hepatitis C virus, read-out: 2b IC50 (nM), HCV genotype 2b
Structure (SMILES),"IC50 [1, 5] [nM]","IC50 [2, 6] [nM]","IC50 [4, 12] [nM]",also measured
"O=c1c2cc(-c3cnc([C@@H]4CC(F)CN4)[nH]3)ccc2oc2c(F)c3ccc(-c4cnc([C@@H]5CC(F)CN5)[nH]4)cc3cc12 (stereo in doubt) [Compound 19, 6-fluoro-2,9-bis{2-[(2S,4S)-4-fluoropyrrolidin-2-yl]-1H-imidazol-5-yl}-12H-benzo[b]xanthen-12-one]",1390,745,,
"CC(C)(C)OC(=O)N1CC(F)C[C@H]1c1ncc(-c2ccc3c(F)c4oc5ccc(-c6cnc([C@@H]7CC(F)CN7C(=O)OC(C)(C)C)[nH]6)cc5c(=O)c4cc3c2)[nH]1 (stereo in doubt) [Compound 24, di-tert-butyl (2S,4S,2′S,4′S)-2,2′-[(6-fluoro-12-oxo-12H-benzo[b]xanthene-2,9-diyl)bis(1H-imidazole-5,2-diyl)]bis(4-fluoropyrrolidine-1-carboxylate)]",2460,425,,
"CCC1c2ccc(-c3cnc([C@@H]4CCCN4C(=O)[C@@H](NC(=O)OC)C(C)C)[nH]3)cc2Oc2ccc3cc(-c4cnc([C@@H]5CCCN5C(=O)[C@@H](NC(=O)OC)C(C)C)[nH]4)ccc3c21 (single isomer, unassigned) [Compound 6]",,,,"IC50 [3, 7]: 1.72 nM; IC50 [1, 8]: 15 nM; IC50 [4, 9]: 12.8 nM; IC50 [2, 10]: 0.0027 nM"
"COC(=O)N[C@H](C(=O)N1CCC[C@@H]1c1ncc(-c2ccc3oc4c(ccc5cc(-c6cnc([C@H]7CCCN7C(=O)[C@H](NC(=O)OC)C(C)C)[nH]6)ccc54)c(=O)c3c2)[nH]1)C(C)C [Compound 1, methyl [(1R)-1-({(2R)-2-[5-(9-{2-[(2R)-1-{(2S)-2-[(methoxycarbonyl)amino]-3-methylbutanoyl}pyrrolidin-2-yl]-1H-imidazol-5-yl}-7-oxo-7H-benzo[c]xanthen-3-yl)-1H-imidazol-2-yl]pyrrolidin-1-yl}carbonyl)-2-methylpropyl]carbamate]",66,0.0204,,
"CCC1c2ccc(-c3cnc([C@@H]4CCCN4C(=O)[C@@H](NC(=O)OC)C(C)C)[nH]3)cc2Oc2ccc3cc(-c4cnc([C@@H]5CCCN5C(=O)[C@@H](NC(=O)OC)C(C)C)[nH]4)ccc3c21 (single isomer, unassigned) [Compound 5]",11.7,0.005,,"IC50 [3, 11]: 1.08 nM; IC50 [4, 9]: 0.784 nM"
"COC(=O)N[C@H](C(=O)N1C[C@H](F)C[C@H]1c1ncc(-c2ccc3c(ccc4oc5cc(-c6cnc([C@@H]7C[C@@H](F)CN7C(=O)[C@@H](NC(=O)OC)C7CCOCC7)[nH]6)ccc5c(=O)c43)c2)[nH]1)C1CCOCC1 [Compound 32, dimethyl [(12-oxo-12H-benzo[a]xanthene-3,9-diyl)bis{1H-imidazole-5,2-diyl[(2S,4R)-4-fluoropyrrolidine-2,1-diyl][(1S)-2-oxo-1-(tetrahydro-2H-pyran-4-yl)ethane-2,1-diyl]}]biscarbamate]",0.18,0.0841,3.47,"IC50 [3, 11]: 5.84 nM"
"COC(=O)N[C@H](C(=O)N1CCC[C@H]1c1ncc(-c2ccc3c(c2)C(C)c2ccc4cc(-c5cnc([C@@H]6CCCN6C(=O)[C@@H](NC(=O)OC)C(C)C)[nH]5)ccc4c2O3)[nH]1)C(C)C (stereo partly drawn) [Compound 4, methyl [(1S)-1-({(2S)-2-[5-(3-{2-[(2S)-1-{(2S)-2-[(methoxycarbonyl)amino]-3-methylbutanoyl}pyrrolidin-2-yl]-1H-imidazol-5-yl}-7-methyl-7H-benzo[c]xanthen-9-yl)-1H-imidazol-2-yl]pyrrolidin-1-yl}carbonyl)-2-methylpropyl]carbamate]",48.8,0.0057,,
"O=c1c2ccc(-c3cnc([C@@H]4CC(F)CN4)[nH]3)cc2oc2ccc3cc(-c4cnc([C@@H]5C[C@@H](F)CN5)[nH]4)ccc3c12 (stereo in doubt) [Compound 18, 3-{2-[(2S,4R)-4-fluoropyrrolidin-2-yl]-1H-imidazol-5-yl}-9-{2-[(2S,4S)-4-fluoropyrrolidin-2-yl]-1H-imidazol-5-yl}-12H-benzo[a]xanthen-12-one]",147,208,,
"CC(C)(C)NC(=O)N1CC(F)C[C@H]1c1ncc(-c2ccc3c(F)c4oc5ccc(-c6cnc([C@@H]7CC(F)CN7C(=O)NC(C)(C)C)[nH]6)cc5c(=O)c4cc3c2)[nH]1 (stereo in doubt) [Compound 23, (2S,4S,2′S,4′S)-2,2′-[(6-fluoro-12-oxo-12H-benzo[b]xanthene-2,9-diyl)bis(1H-imidazole-5,2-diyl)]bis(N-tert-butyl-4-fluoropyrrolidine-1-carboxamide)]",436,53.5,≥ 1000,
"COC(=O)N[C@H](C(=O)N1CCC[C@H]1c1ncc(-c2ccc3c(c2)Oc2ccc4cc(-c5cnc([C@@H]6CCCN6C(=O)[C@@H](NC(=O)OC)C(C)C)[nH]5)ccc4c2C3(C)C)[nH]1)C(C)C [Compound 7, methyl [(1S)-1-({(2S)-2-[5-(3-{2-[(2S)-1-{(2S)-2-[(methoxycarbonyl)amino]-3-methylbutanoyl}pyrrolidin-2-yl]-1H-imidazol-5-yl}-12,12-dimethyl-12H-benzo[a]xanthen-9-yl)-1H-imidazol-2-yl]pyrrolidin-1-yl}carbonyl)-2-methylpropyl]carbamate]",17.8,0.0029,11,
"CCC1c2ccc(-c3cnc([C@@H]4CCCN4C(=O)[C@@H](NC(=O)OC)C4CCOCC4)[nH]3)cc2Oc2ccc3cc(-c4cnc([C@@H]5CCCN5C(=O)[C@@H](NC(=O)OC)C5CCOCC5)[nH]4)ccc3c21 (single isomer, unassigned) [Compound 14]",,,,"IC50 [3, 7]: 0.034 nM; IC50 [1, 8]: 0.221 nM; IC50 [2, 10]: 0.0042 nM"
"CC(C)(C)NC(=O)N1CC(F)C[C@H]1c1ncc(-c2ccc3c(ccc4oc5cc(-c6cnc([C@@H]7C[C@@H](F)CN7C(=O)NC(C)(C)C)[nH]6)ccc5c(=O)c43)c2)[nH]1 (stereo in doubt) [Compound 21, (2S,4R,2′S,4′S)-2,2′-[(12-oxo-12H-benzo[a]xanthene-3,9-diyl)bis(1H-imidazole-5,2-diyl)]bis(N-tert-butyl-4-fluoropyrrolidine-1-carboxamide)]",96.2,63.1,505,
"CC(C)(C)OC(=O)N1CC(F)C[C@H]1c1ncc(-c2ccc3c(ccc4oc5cc(-c6cnc([C@@H]7C[C@@H](F)CN7C(=O)OC(C)(C)C)[nH]6)ccc5c(=O)c43)c2)[nH]1 (stereo in doubt) [Compound 22, di-tert-butyl (2S,4R,2′S,4′S)-2,2′-[(12-oxo-12H-benzo[a]xanthene-3,9-diyl)bis(1H-imidazole-5,2-diyl)]bis(4-fluoropyrrolidine-1-carboxylate)]",717,291,,
